Measurements as given in article PMC12260535, “A novel thiazole-sulfonamide hybrid molecule as a promising dual tubulin/carbonic anhydrase IX inhibitor with anticancer activity” (Frontiers in Chemistry, 2025).
Where two headings read alike, the source gives them in different places.

Assays:
[1] = test system: WI-38 normal lung fibroblast cells; test: MTT cytotoxicity assay, normal WI-38 fibroblasts; type: cell-based; conditions: Homo sapiens, 48 h, WI-38 normal fibroblasts
Description: (§1) All cell lines were obtained from the Vacsera Cell Culture Library, Tissue Culture Unit, Cairo, Egypt, with ATCC certification. The assay enabled the detection of membrane-compromised cells based on the fluorescence intensity of DNA binding. Check Appendix A for additional information.
(§2) Cells were cultured in their respective recommended media supplemented with 10% fetal bovine serum and 1% penicillin-streptomycin and maintained at 37 °C in a humidified atmosphere containing 5% CO₂. Cell viability was assessed using the MTT assay, following the protocol provided with the In Vitro Toxicology Assay Kit, MTT Based (Sigma-Aldrich, TOX-1). Briefly, cells were seeded in 96-well plates at a density of 5 × 10³ cells/well and allowed to adhere overnight. […] Subsequently, 10 µL of reconstituted MTT solution (5 mg/mL in serum-free, phenol red-free medium) was added to each well and incubated for 3 h at 37 °C. The resulting formazan crystals were dissolved by adding 100 µL of the MTT Solubilization Solution, and the plates were gently shaken to ensure complete solubilization. Absorbance was recorded at 570 nm with a reference wavelength of 690 nm using a microplate reader. Cell viability was expressed as a percentage relative to untreated control cells. All experiments were conducted in triplicate, and IC₅₀ values were determined using linear regression analysis.

[2] = test system: HT-29 (colon adenocarcinoma) cells; test: MTT antiproliferative assay, HT-29; type: cell-based; conditions: Homo sapiens, 48 h, HT-29 colorectal cancer cells
Description: as §1, §2

[3] = test system: 786-O (renal carcinoma) cells; test: MTT antiproliferative assay, 786-O; type: cell-based; conditions: Homo sapiens, read-out: IC50 786-O
Description: as §1, §2

[4] = test system: A549 (lung carcinoma) cells; test: MTT antiproliferative assay, A549; type: cell-based; conditions: Homo sapiens, read-out: IC50 A549
Description: (§3) . All cell lines were obtained from the Vacsera Cell Culture Library, Tissue Culture Unit, Cairo, Egypt, with ATCC certification. […] Check Appendix A for additional information.
as §2, with “. Cells” for “Cells”

[5] = test system: MCF-7 (breast adenocarcinoma) cells; test: MTT antiproliferative assay, MCF-7; type: cell-based; conditions: Homo sapiens, read-out: IC50 MCF-7
Description: as §3
as §2, with “. Cells” for “Cells”

[6] = test system: caspase-3; test: Active caspase-3 ELISA in HT-29 cells; type: cell-based, human
Text: This sandwich ELISA detects caspase-3 cleaved at Asp175/Ser176, enabling sensitive colorimetric measurement at 450 nm. Additional procedural details are provided in Appendix A (Supplementary Material).
This assay is based on a solid-phase sandwich ELISA principle, where an anti-human caspase-3 monoclonal antibody is pre-coated onto a microplate. Cell lysates or standards are captured by this antibody, followed by the addition of a rabbit polyclonal detection antibody specific for active caspase-3 cleaved at Asp175/Ser176. Detection is then performed using HRP-conjugated anti-rabbit IgG and TMB substrate. Cell lysates were prepared in protease inhibitor-supplemented cell extraction buffer and clarified by centrifugation. Samples were diluted in Standard Diluent Buffer and added to the wells along with a standard curve of human active caspase-3. The standard concentrations included 39, 78, 156, 313, 625, 1250, and 2500 ng/mL, which yielded optical density (OD) readings ranging from 0.192 to 2.733. A blank reading of 0.018 was subtracted from each standard OD, and the resulting data were used to generate a standard curve. […] After color development, the reaction was stopped with acid, and absorbance was read at 450 nm. The concentration of active caspase-3 in treated samples was determined using linear regression analysis of the standard curve. […]

[7] = biological target: CA II (Homo sapiens, UniProt P00918); test: Carbonic anhydrase inhibitor screening kit (colorimetric), CA II
[8] = biological target: CA XII (Homo sapiens, UniProt O43570); test: Carbonic anhydrase inhibitor screening kit (colorimetric), CA XII
Chain of CA XII (O43570 25-354): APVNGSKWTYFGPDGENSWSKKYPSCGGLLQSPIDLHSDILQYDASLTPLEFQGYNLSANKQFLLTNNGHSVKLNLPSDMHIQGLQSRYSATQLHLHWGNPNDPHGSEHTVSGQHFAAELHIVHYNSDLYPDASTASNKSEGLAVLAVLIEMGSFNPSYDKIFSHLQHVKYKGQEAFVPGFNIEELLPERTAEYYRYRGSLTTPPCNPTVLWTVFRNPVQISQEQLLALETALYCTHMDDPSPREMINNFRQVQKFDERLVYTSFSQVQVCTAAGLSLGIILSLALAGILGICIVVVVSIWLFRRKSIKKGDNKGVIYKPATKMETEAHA

[9] = test system: caspase-9; test: Caspase-9 ELISA in HT-29 cells; type: cell-based, human
Text: This assay employs a sandwich ELISA format, utilizing a specific capture antibody and an HRP-conjugated detection system, with absorbance measured at 450 nm. A detailed methodology is provided in Appendix A (Supplementary Material).
This solid-phase sandwich ELISA employs a monoclonal antibody pre-coated on a 96-well microplate to capture caspase-9 from samples. A rabbit polyclonal detection antibody specific to human caspase-9 is subsequently added, followed by an HRP-conjugated anti-rabbit IgG and TMB substrate for colorimetric detection. The intensity of the yellow product formed after stopping the reaction with phosphoric acid is proportional to the amount of caspase-9 present and is measured at 450 nm. […] Lysates were centrifuged at 1,000 × g for 15 minutes, and the clear supernatants were collected and either analyzed immediately or stored at –80 °C. […] Standard concentrations of 1.6, 3.1, 6.3, 12.5, 25, 50, and 100 ng/mL yielded OD values of 0.140, 0.167, 0.213, 0.239, 0.501, 0.799, and 1.639 respectively, with a blank reading of 0.042. Net OD values were calculated by subtracting the blank absorbance, and the standard curve was constructed accordingly. The concentration of caspase-9 in each sample was determined using linear regression analysis, and final values were adjusted by the dilution factor.

[10] = test system: Bcl-2; test: Bcl-2 ELISA in HT-29 cells; type: cell-based, human
Description: Absorbance was measured at 450 nm to determine changes in Bcl-2 expression in response to treatment. A full description of the assay protocol is included in Appendix A (Supplementary Material).
The assay is based on a sandwich ELISA format, where human Bcl-2 is captured by a monoclonal antibody coated on a microwell plate and detected using a biotin-conjugated anti-Bcl-2 antibody followed by Streptavidin-HRP and TMB substrate. Cells were lysed using the supplied Lysis Buffer at a concentration of 5 × 10⁶ cells/mL and incubated for 1 hour at room temperature with gentle shaking. Lysates were clarified by centrifugation at 1000 × g for 15 minutes, and the supernatants were collected for immediate use or stored at –80 °C. For the assay, 20 µL of sample was added to wells along with 80 µL of Sample Diluent, followed by 50 µL of diluted biotin-conjugate. After a 2-hour incubation at room temperature, plates were washed and incubated with diluted Streptavidin-HRP for 1 hour. […] Absorbance was measured at 450 nm with optional correction between 610–650 nm. […] The corresponding absorbance values ranged from approximately 0.121 to 2.461, with a background (blank) absorbance of 0.023. Net absorbance values were calculated by subtracting the blank from each standard, and the resulting data were used to construct a calibration curve. […]

[11] = test system: p53; test: p53 ELISA in HT-29 cells; type: cell-based, human
[12] = biological target: CA I (Homo sapiens, UniProt P00915); test: Carbonic anhydrase inhibitor screening kit (colorimetric), CA I
Chain of CA I (P00915 whole entry): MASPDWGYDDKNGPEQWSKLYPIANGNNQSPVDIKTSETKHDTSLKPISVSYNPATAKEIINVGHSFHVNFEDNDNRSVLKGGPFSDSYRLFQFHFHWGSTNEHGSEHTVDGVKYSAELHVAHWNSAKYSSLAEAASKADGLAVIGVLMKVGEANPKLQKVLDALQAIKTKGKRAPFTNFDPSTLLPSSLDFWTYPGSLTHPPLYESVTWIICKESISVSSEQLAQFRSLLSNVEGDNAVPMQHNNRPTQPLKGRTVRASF

[13] = test system: Bax; test: Bax ELISA in HT-29 cells; type: cell-based, human
Description: Changes in Bax levels were quantified in treated cell lysates to assess the apoptotic response. Comprehensive assay details are available in Appendix A (Supplementary Material).
This sandwich-based immunoassay utilizes a monoclonal antibody specific for human BAX-α to capture and quantify the protein in cell lysates. Cells were lysed using the provided Cell Lysis Buffer, freshly supplemented with phenylmethylsulfonyl fluoride (PMSF, 1 mM) and protease inhibitor cocktail (PIC, 0.5 µL/mL). Lysates were incubated on ice, vortexed, and centrifuged at 16,000 rpm for 15 minutes at 4 °C. The supernatants were collected and diluted with the kit's Assay Buffer. A standard curve was generated using BAX-α standards with concentrations of 62.5, 125, 250, 500, 1000, and 2000 ng/mL. The corresponding net absorbance values (after subtracting the average blank OD of 0.023) were 0.110, 0.192, 0.338, 0.781, 1.443, and 2.496, respectively. Absorbance was measured at 450 nm with a reference wavelength of 570–590 nm. BAX concentrations in the samples were calculated using linear regression analysis based on the standard curve obtained. The assay provided a sensitive and quantitative measure of BAX modulation in response to compound 7.

[14] = biological target: CA IX (Homo sapiens, UniProt Q16790); test: Carbonic anhydrase inhibitor screening kit (colorimetric), CA IX
[15] = biological target: CA IX; conditions: cited from earlier work
[16] = test system: tubulin; conditions: read-out: tubulin polymerization IC50, cited from earlier work

Compound `COc1ccc(/C=C\c2cc(OC)c(OC)c(OC)c2)cc1O` [CA-4, combretastatin A-4, reference compound] has an IC50 [1] of 28.1 µM, an IC50 [2] of 2150 nM and an IC50 ([3]; 786-0, MTT assay, 48 h, 786-O renal cancer cells) of 3270 nM. For the same compound, the IC50 ([4]; MTT assay, 48 h, A549 lung cancer cells) was 0.44 µM and the IC50 ([5]; MCF7, MTT assay, 48 h, MCF-7 breast cancer cells) was 1820 nM.

In the case of `Cc1[nH]c(=S)sc1C(=O)/C=C/c1ccc(S(N)(=O)=O)cc1` [Compound 7, (E)-4-(3-(4-methyl-2-thioxo-2,3-dihydrothiazol-5-yl)-3-oxoprop-1-en-1-yl)benzenesulfonamide], the “Caspase 3 Conc” value ([6]; ELISA, DMSO control 57.64 ± 1.36) is reported as 511.27 ± 13.18 pg/mL, the “Caspase 3 Fold change” value ([6]; versus DMSO control) is reported as 8.87 and the IC50 [7] is reported as 381 ± 45 nM. For the same compound, the IC50 [8] was 114 ± 12 nM, the “Caspase-9 Conc” value ([9]; ELISA, DMSO control 5.09 ± 0.26) was 49.39 ± 1.13 ng/mL and the “Caspase-9 Fold change” value ([9]; versus DMSO control) was 9.70. For the same compound, the “Bcl-2 Conc” value ([10]; ELISA, DMSO control 19.25 ± 0.43) was 6.212 ± 0.093 pg/mL, the “Bcl-2 Fold change” value ([10]; versus DMSO control) was 0.323 and the IC50 ([3]; 786-0, 48 h) was 1560 nM. The IC50 ([4]; A549, 48 h) was 6.82 µM, the “P53 Conc” value ([11]; ELISA, DMSO control 150.66 ± 3.33) was 1,224.00 ± 6.67 pg/mL and the “P53 Fold change” value ([11]; versus DMSO control) was 8.12. The IC50 ([5]; MCF7, 48 h) was 3630 nM, the IC50 [12] was 1900 ± 250 nM and the “Bax Conc” value ([13]; ELISA, DMSO control 68.50 ± 1.67) was 392.25 ± 14.58 pg/mL. For the same compound, the “Bax Fold change” value ([13]; versus DMSO control) was 5.73 and the IC50 [14] was 21 ± 4 nM.

In the case of `NS(=O)(=O)c1ccc(NC(=O)Nc2cc3cc(Br)ccc3o2)cc1` [Compound II], the Ki ([15]; ref Shaldam et al., 2021) is given as 5.5 nM.

For `COc1ccc2[nH]cc(/C=N/Nc3nc(-c4cccc(Br)c4)cs3)c2c1` [Compound VII], the IC50 ([16]; ref Wang et al., 2024) is listed as 1680 nM.

For `COc1cc(-c2csc(NC(=O)CNc3ccc([N+](=O)[O-])cc3)n2)cc(OC)c1OC` [compound VIII], the IC50 ([16]; ref El-Abd et al., 2022) is listed as 2000 nM.

For `CCOc1ccc(-c2sc(N)nc2-c2ccc(OC)c3ccccc23)cc1` [compound VI], the IC50 ([16]; ref Wang et al., 2021) is listed as 3300 nM.

In the case of `COc1cc(/C=C/C(=O)c2nnn(-c3ccc(S(N)(=O)=O)cc3)c2C)cc(OC)c1OC` [compound V], the Ki ([15]; ref Abdelhakeem et al., 2024) is given as 30 nM.
